Test results: PubChem BioAssay AID248 (DTP/NCI, 2004)
Where “and” joins values, the source holds several entries; their conditions need not be identical. Equal entries are not always repeated. Toxic doses and inconclusive results are not listed. Rule as the data show it: active = T/C of 150% or more; inactive = T/C below 125%.

Test system: L1210 leukemia ip in BDF1 mice, survival T/C
Test: NCI In Vivo Anticancer Drug Screen. Data for tumor model L1210 Leukemia (intraperitoneal) in B6D2F1 (BDF1) mice
Conditions: endpoint: mean survival time, higher = longer survival
Outline: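 Antitumor effect is assessed in tumor-bearing animals. Survival in the compound arm is compared with a vehicle-dosed control arm and expressed as their quotient.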

[1] = dose: 100.0 mg/kg/injection, schedule: Q01DX001 (ip), vehicle: Klucel (hydroxypropylcellulose) (HPC)
[2] = dose: 200.0 mg/kg/injection, schedule: Q01DX001 (ip), vehicle: Klucel (hydroxypropylcellulose) (HPC)
[3] = dose: 400.0 mg/kg/injection, schedule: Q01DX001 (ip), vehicle: Klucel (hydroxypropylcellulose) (HPC)
[4] = dose: 100.0 mg/kg/injection, schedule: Q01DX009 (ip), vehicle: saline with Tween-80
[5] = dose: 200.0 mg/kg/injection, schedule: Q01DX009 (ip), vehicle: saline with Tween-80
[6] = dose: 400.0 mg/kg/injection, schedule: Q01DX009 (ip), vehicle: saline with Tween-80
[7] = dose: 50.0 mg/kg/injection, schedule: Q01DX001 (ip), vehicle: saline
[8] = dose: 100.0 mg/kg/injection, schedule: Q01DX001 (ip), vehicle: saline
[9] = dose: 200.0 mg/kg/injection, schedule: Q01DX001 (ip), vehicle: saline
[10] = dose: 400.0 mg/kg/injection, schedule: Q01DX001 (ip), vehicle: saline
[11] = dose: 100.0 mg/kg/injection, schedule: Q01DX009 (ip), vehicle: Klucel (hydroxypropylcellulose) (HPC)
[12] = dose: 100.0 mg/kg/injection, schedule: Q04DX003 (ip), vehicle: Klucel (hydroxypropylcellulose) (HPC)
[13] = dose: 200.0 mg/kg/injection, schedule: Q01DX009 (ip), vehicle: Klucel (hydroxypropylcellulose) (HPC)
[14] = dose: 200.0 mg/kg/injection, schedule: Q04DX003 (ip), vehicle: Klucel (hydroxypropylcellulose) (HPC)
[15] = dose: 400.0 mg/kg/injection, schedule: Q04DX003 (ip), vehicle: Klucel (hydroxypropylcellulose) (HPC)
[16] = dose: 100.0 mg/kg/injection, schedule: Q04DX002 (ip), vehicle: Klucel (hydroxypropylcellulose) (HPC)
[17] = dose: 100.0 mg/kg/injection, schedule: Q01DX009 (ip), vehicle: saline
[18] = dose: 100.0 mg/kg/injection, schedule: Q04DX003 (ip), vehicle: saline
[19] = dose: 200.0 mg/kg/injection, schedule: Q01DX009 (ip), vehicle: saline
[20] = dose: 200.0 mg/kg/injection, schedule: Q04DX003 (ip), vehicle: saline
[21] = dose: 400.0 mg/kg/injection, schedule: Q01DX009 (ip), vehicle: saline
[22] = dose: 400.0 mg/kg/injection, schedule: Q04DX003 (ip), vehicle: saline

Measured: T/C

CN1c2ccccc2C(C)(C)C12C=Cc1cc([N+](=O)[O-])cc([N+](=O)[O-])c1O2 (stereo not given)
inactive: [1] 105 % of control | [2] 105 % of control | [3] 97 % of control

O=C(Nc1cccc([N+](=O)[O-])c1)c1ccc2c(c1)C(=O)OC2=O
inactive: [4] 95 % of control | [5] 87 % of control | [6] 93 % of control

O=C1CCCC(=O)NNC(=O)Nc2ccc(cc2)Cc2ccc(cc2)NC(=O)NN1
inactive: [7] 104 % of control | [8] 90 % of control | [9] 93 % of control | [10] 93 % of control

C=CCOC(=O)Oc1ccccc1Cl
inactive: [11] 92 % of control | [12] 95 % of control | [13] 89 % of control | [14] 97 % of control

OCCNc1nc2cc(Cl)ccc2c2ccc(Cl)cc12
inactive: [11] 91 % of control | [12] 96 % of control | [13] 99 % of control | [14] 93 % of control | [15] 96 % of control

O=S(=O)(C1CC1)C1CC1
inactive: dose: 100.0 mg/kg/injection, schedule: Q04DX002 (ip), vehicle: saline with Tween-80 94 % of control | dose: 200.0 mg/kg/injection, schedule: Q04DX002 (ip), vehicle: saline with Tween-80 103 % of control | dose: 400.0 mg/kg/injection, schedule: Q04DX002 (ip), vehicle: saline with Tween-80 94 % of control

Cc1n[nH]c(C)c1Br
inactive: dose: 75.0 mg/kg/injection, schedule: Q01DX009 (ip), vehicle: saline with Tween-80 95 % of control | dose: 75.0 mg/kg/injection, schedule: Q04DX003 (ip), vehicle: saline with Tween-80 97 % of control | dose: 150.0 mg/kg/injection, schedule: Q01DX009 (ip), vehicle: saline with Tween-80 97 % of control | dose: 150.0 mg/kg/injection, schedule: Q04DX003 (ip), vehicle: saline with Tween-80 95 % of control | dose: 300.0 mg/kg/injection, schedule: Q01DX009 (ip), vehicle: saline with Tween-80 99 % of control | dose: 300.0 mg/kg/injection, schedule: Q04DX003 (ip), vehicle: saline with Tween-80 98 % of control

OC(Cc1ccccc1)(c1ccc(Cl)cc1)c1ccc(Cl)cc1
inactive: [1] 107 % of control | [2] 95 % of control | [3] 101 % of control

CCCCCC(C[N+](C)(C)C)C(=O)/C=C/c1ccc(Cl)c(Cl)c1 (stereo not given)
inactive: dose: 25.0 mg/kg/injection, schedule: Q04DX002 (ip), vehicle: Klucel (hydroxypropylcellulose) (HPC) 91 % of control | dose: 50.0 mg/kg/injection, schedule: Q04DX002 (ip), vehicle: Klucel (hydroxypropylcellulose) (HPC) 98 % of control | [16] 95 % of control

CC(C)(NCc1ccccc1)C(=O)c1ccccc1
inactive: dose: 50.0 mg/kg/injection, schedule: Q01DX001 (ip), vehicle: carboxymethylcellulose (CMC) 100 % of control | dose: 50.0 mg/kg/injection, schedule: Q04DX003 (ip), vehicle: Klucel (hydroxypropylcellulose) (HPC) 95 % of control | dose: 100.0 mg/kg/injection, schedule: Q01DX001 (ip), vehicle: carboxymethylcellulose (CMC) 102 % of control | [11] 105 % of control | [12] 93 % of control | dose: 200.0 mg/kg/injection, schedule: Q01DX001 (ip), vehicle: carboxymethylcellulose (CMC) 90 % of control | [14] 95 % of control

Cc1nc2ncnc(Cl)c2[nH]1
inactive: [8] 103 % of control | [9] 106 % of control | [10] 100 % of control

CCC(C#N)(CCN(CC=C(C)C)CC=C(C)C)c1cccc2ccccc12 (stereo not given)
inactive: [12] 96 % of control

Cc1ccc(NC(=O)OCCN(CCOC(=O)Nc2ccc(C)cc2)c2cccc(C)c2)cc1
inactive: [8] 94 % of control | [9] 90 % of control | [10] 94 % of control

Cc1cc(=O)c(CO)n[nH]1
inactive: [17] 103 % of control | [18] 101 % of control | [19] 95 % of control | [20] 106 % of control | [21] 98 % of control | [22] 103 % of control

Cc1ccc(NC(=O)OCCOc2ccc(Cl)cc2)c([N+](=O)[O-])c1
inactive: dose: 50.0 mg/kg/injection, schedule: Q01DX009 (ip), vehicle: Klucel (hydroxypropylcellulose) (HPC) 97 % of control | [11] 87 % of control | [12] 99 % of control | [13] 90 % of control | [14] 104 % of control | [15] 90 % of control

O=C(CCN1CCCCC1)c1cc(Cl)ccc1Cl
inactive: dose: 12.5 mg/kg/injection, schedule: Q01DX009 (ip), vehicle: saline 93 % of control | dose: 25.0 mg/kg/injection, schedule: Q01DX009 (ip), vehicle: saline 97 % of control and 98 % of control | dose: 25.0 mg/kg/injection, schedule: Q04DX002 (ip), vehicle: saline 103 % of control | dose: 50.0 mg/kg/injection, schedule: Q01DX009 (ip), vehicle: saline 93 % of control | dose: 50.0 mg/kg/injection, schedule: Q04DX002 (ip), vehicle: saline 98 % of control | [17] 91 % of control | dose: 100.0 mg/kg/injection, schedule: Q04DX002 (ip), vehicle: saline 100 % of control and 88 % of control

O=C(Nc1cccc(F)c1)Nc1cccc(C(F)(F)F)c1
inactive: [11] 96 % of control | [13] 95 % of control | dose: 400.0 mg/kg/injection, schedule: Q01DX009 (ip), vehicle: Klucel (hydroxypropylcellulose) (HPC) 105 % of control

CC(C)(C)OC(=O)C(c1ccccc1)c1ccccc1
inactive: [7] 106 % of control | [8] 89 % of control | [9] 106 % of control | [10] 89 % of control

ClCCNCc1ccc(Nc2ccnc3cc(Cl)ccc23)cc1
inactive: dose: 75.0 mg/kg/injection, schedule: Q01DX001 (ip), vehicle: carboxymethylcellulose (CMC) 103 % of control

c1ccc(Sc2cccc3ccccc23)cc1
inactive: [4] 109 % of control | [5] 103 % of control | [6] 103 % of control

CC(C)c1cc(C(C)C)nc(NNc2nc(C(C)C)cc(C(C)C)n2)n1
inactive: [4] 102 % of control | [5] 100 % of control | [6] 98 % of control

N#CCOc1cc(Cl)c(Cl)cc1Cl
inactive: [16] 107 % of control | dose: 200.0 mg/kg/injection, schedule: Q04DX002 (ip), vehicle: Klucel (hydroxypropylcellulose) (HPC) 97 % of control

CN1CCC23c4ccccc4NC1C21CCN(C)C3Nc2ccccc21
inactive: dose: 6.25 mg/kg/injection, schedule: Q01DX Z (ip), vehicle: saline 97 % of control | dose: 12.5 mg/kg/injection, schedule: Q01DX Z (ip), vehicle: saline 110 % of control | dose: 25.0 mg/kg/injection, schedule: Q01DX Z (ip), vehicle: saline 100 % of control | dose: 50.0 mg/kg/injection, schedule: Q01DX Z (ip), vehicle: saline 101 % of control | [11] 107 % of control | [13] 96 % of control

O=C1c2ccccc2C[CH]1[Hg][Cl] (stereo not given)
inactive: dose: 5.0 mg/kg/injection, schedule: Q01DX001 (ip), vehicle: saline 103 % of control | dose: 10.0 mg/kg/injection, schedule: Q01DX001 (ip), vehicle: saline 102 % of control

NCCc1nc(C(=O)O)cs1
inactive: [8] 104 % of control | [17] 86 % of control | [18] 103 % of control | [9] 102 % of control | [19] 97 % of control | [20] 119 % of control | [10] 104 % of control | [21] 86 % of control | [22] 92 % of control

CC1OC(n2ncc(=O)[nH]c2=O)C2OC(C)(C)OC2C1=O (stereo not given)
inactive: dose: 12.5 mg/kg/injection, schedule: Q01DX005 (ip), vehicle: distilled water + Tween-80 108 % of control | dose: 25.0 mg/kg/injection, schedule: Q01DX005 (ip), vehicle: distilled water + Tween-80 95 % of control | dose: 50.0 mg/kg/injection, schedule: Q01DX005 (ip), vehicle: distilled water + Tween-80 92 % of control | dose: 100.0 mg/kg/injection, schedule: Q01DX005 (ip), vehicle: distilled water + Tween-80 95 % of control | dose: 200.0 mg/kg/injection, schedule: Q01DX005 (ip), vehicle: distilled water + Tween-80 97 % of control
